Experimental data as given in patent publication US20120122860A1, “SOLID FORMS OF SULFONAMIDES AND AMINO ACIDS” (Plexxikon, Inc., priority 2009, published 2012).
pIC50: −log10 of the molar value.

Legend:
[1] = target: B-Raf (Homo sapiens, UniProt P15056); test: Kinase activity assay, B-Raf; format: biochemical; conditions: read-out: activity toward kinase B-Raf, IC50
[2] = target: B-Raf V600E (Homo sapiens, UniProt P15056, V600E); test: Kinase activity assay, B-Raf V600E; format: biochemical; conditions: read-out: activity toward kinase B-Raf V600E, IC50
[3] = target: C-Raf (Homo sapiens, UniProt P04049); test: Kinase activity assay, C-Raf
[4] = target: Kdr (Homo sapiens, UniProt P35968); test: Kinase activity assay, Kdr
Kdr, sequence (P35968 20-1356): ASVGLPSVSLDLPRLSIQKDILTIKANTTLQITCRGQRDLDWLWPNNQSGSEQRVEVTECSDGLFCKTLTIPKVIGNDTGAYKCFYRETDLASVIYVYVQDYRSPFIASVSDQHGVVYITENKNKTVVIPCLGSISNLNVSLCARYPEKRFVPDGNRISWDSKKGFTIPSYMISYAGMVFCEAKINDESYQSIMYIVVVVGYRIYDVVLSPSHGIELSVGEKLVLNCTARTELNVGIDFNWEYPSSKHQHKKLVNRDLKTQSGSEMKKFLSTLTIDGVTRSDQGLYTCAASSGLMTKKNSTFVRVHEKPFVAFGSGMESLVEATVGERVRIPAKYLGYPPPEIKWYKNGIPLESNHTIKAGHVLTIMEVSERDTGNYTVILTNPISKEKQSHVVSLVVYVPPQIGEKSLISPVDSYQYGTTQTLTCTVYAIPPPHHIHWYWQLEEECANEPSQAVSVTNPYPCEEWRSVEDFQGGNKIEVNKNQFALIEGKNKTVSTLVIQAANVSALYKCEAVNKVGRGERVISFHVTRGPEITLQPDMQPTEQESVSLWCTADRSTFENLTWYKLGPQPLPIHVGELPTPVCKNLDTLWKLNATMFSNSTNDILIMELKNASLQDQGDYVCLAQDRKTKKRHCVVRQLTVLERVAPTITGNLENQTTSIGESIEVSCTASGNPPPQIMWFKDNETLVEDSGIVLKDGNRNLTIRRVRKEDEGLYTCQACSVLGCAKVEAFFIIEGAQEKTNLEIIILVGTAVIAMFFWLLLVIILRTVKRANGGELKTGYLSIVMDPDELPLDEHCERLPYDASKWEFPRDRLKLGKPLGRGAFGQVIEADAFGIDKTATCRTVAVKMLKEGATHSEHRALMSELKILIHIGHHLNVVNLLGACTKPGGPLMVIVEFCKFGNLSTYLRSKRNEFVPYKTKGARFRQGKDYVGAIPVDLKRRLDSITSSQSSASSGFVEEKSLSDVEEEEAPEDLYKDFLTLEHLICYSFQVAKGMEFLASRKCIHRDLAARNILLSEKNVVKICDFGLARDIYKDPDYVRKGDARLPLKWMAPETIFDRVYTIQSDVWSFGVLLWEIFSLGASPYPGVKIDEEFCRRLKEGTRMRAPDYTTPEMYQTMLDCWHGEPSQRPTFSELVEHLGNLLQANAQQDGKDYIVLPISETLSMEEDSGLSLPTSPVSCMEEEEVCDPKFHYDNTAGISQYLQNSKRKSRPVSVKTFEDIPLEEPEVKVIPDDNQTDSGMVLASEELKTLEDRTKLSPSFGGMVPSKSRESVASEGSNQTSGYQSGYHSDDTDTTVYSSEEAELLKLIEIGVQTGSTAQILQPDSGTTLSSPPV

B-Raf V600E, sequence (P15056 whole entry V600E): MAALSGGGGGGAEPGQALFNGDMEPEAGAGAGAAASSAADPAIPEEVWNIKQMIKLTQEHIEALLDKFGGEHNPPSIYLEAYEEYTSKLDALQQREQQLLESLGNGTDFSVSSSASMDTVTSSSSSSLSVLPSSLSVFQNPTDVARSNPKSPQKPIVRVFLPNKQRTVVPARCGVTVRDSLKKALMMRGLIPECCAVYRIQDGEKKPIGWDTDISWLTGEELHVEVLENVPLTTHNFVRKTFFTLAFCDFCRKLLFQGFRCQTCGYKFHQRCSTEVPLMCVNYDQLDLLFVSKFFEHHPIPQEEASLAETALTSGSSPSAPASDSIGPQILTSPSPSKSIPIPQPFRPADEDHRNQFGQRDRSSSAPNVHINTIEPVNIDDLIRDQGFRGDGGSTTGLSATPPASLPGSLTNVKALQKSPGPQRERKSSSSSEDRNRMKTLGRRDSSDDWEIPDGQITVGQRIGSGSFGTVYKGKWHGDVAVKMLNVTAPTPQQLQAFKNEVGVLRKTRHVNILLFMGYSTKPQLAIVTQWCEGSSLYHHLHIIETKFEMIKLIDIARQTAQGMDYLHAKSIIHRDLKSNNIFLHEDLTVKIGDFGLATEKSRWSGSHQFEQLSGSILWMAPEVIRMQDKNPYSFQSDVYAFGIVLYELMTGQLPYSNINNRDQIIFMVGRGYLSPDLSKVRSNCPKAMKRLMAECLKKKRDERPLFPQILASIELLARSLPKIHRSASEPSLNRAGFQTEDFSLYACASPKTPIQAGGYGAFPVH
B-Raf, sequence (P15056 whole entry): as the sequence (P15056 whole entry V600E) above, with E600V counted along it
C-Raf, sequence (P04049 whole entry): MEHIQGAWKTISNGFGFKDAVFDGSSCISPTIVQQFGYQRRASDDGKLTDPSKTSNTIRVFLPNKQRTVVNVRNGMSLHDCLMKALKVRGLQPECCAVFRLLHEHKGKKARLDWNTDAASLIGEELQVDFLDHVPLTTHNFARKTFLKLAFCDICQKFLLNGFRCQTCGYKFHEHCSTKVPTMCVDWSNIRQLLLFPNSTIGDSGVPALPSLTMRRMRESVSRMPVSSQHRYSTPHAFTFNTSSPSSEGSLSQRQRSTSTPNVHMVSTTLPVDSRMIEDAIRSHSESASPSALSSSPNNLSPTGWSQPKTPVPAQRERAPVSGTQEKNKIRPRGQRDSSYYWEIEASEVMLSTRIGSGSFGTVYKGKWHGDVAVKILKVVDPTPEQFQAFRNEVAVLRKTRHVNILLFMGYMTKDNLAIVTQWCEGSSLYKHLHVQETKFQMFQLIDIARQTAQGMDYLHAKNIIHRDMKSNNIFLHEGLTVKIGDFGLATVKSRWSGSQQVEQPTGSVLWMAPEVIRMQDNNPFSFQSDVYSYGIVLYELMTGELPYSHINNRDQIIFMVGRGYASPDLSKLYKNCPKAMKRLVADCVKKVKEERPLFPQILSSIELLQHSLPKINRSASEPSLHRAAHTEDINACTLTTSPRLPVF

Compound	pIC50 [1]	pIC50 [2]	pIC50 [3]	pIC50 [4]
N#Cc1cnc2[nH]cc(C(=O)c3c(F)ccc(NS(=O)(=O)c4ccc(F)cc4)c3F)c2c1 [P-2028, N-[3-(5-Cyano-1H-pyrrolo[2,3-b]pyridine-3-carbonyl)-2,4-difluoro-phenyl]-4-fluoro-benzenesulfonamide]	≥ 5.00	≥ 5.00	≥ 5.00	–
N#Cc1cnc2[nH]cc(C(=O)c3cccc(NS(=O)(=O)c4ccc(F)cc4)c3F)c2c1 [P-2050, N-[3-(5-Cyano-1H-pyrrolo[2,3-b]pyridine-3-carbonyl)-2-fluoro-phenyl]-4-fluoro-benzenesulfonamide]	≥ 5.00	≥ 5.00	≥ 5.00	–
COc1ccnc2[nH]cc(C(=O)c3c(F)ccc(NS(=O)(=O)c4ncn[nH]4)c3F)c12 [P-2068, 2H-[1,2,4]Triazole-3-sulfonic acid [2,4-difluoro-3-(4-methoxy-1H-pyrrolo[2,3-b]pyridine-3-carbonyl)-phenyl]-amide]	–	≥ 5.00	≥ 5.00	–
Cc1oncc1S(=O)(=O)Nc1ccc(F)c(C(=O)c2c[nH]c3ncc(C#N)cc23)c1F [P-2081, 5-Methyl-isoxazole-4-sulfonic acid [3-(5-cyano-1H-pyrrolo[2,3-b]pyridine-3-carbonyl)-2,4-difluoro-phenyl]-amide]	–	≥ 5.00	≥ 5.00	≥ 5.00
Cc1c(S(=O)(=O)Nc2ccc(F)c(C(=O)c3c[nH]c4ncc(C#N)cc34)c2F)cnn1C [P-2082, 1,5-Dimethyl-1H-pyrazole-4-sulfonic acid [3-(5-cyano-1H-pyrrolo[2,3-b]pyridine-3-carbonyl)-2,4-difluoro-phenyl]-amide]	–	≥ 5.00	–	≥ 5.00
CCn1cc(S(=O)(=O)Nc2ccc(F)c(C(=O)c3c[nH]c4ncc(C#N)cc34)c2F)cn1 [P-2083, 1-Ethyl-1H-pyrazole-4-sulfonic acid [3-(5-cyano-1H-pyrrolo[2,3-b]pyridine-3-carbonyl)-2,4-difluoro-phenyl]-amide]	–	≥ 5.00	≥ 5.00	–
Cn1cc(S(=O)(=O)Nc2ccc(F)c(C(=O)c3c[nH]c4ncc(C#N)cc34)c2F)cn1 [P-2084, 1-Methyl-1H-pyrazole-4-sulfonic acid [3-(5-cyano-1H-pyrrolo[2,3-b]pyridine-3-carbonyl)-2,4-difluoro-phenyl]-amide]	≥ 5.00	≥ 5.00	≥ 5.00	–
COc1ccc(S(=O)(=O)Nc2ccc(F)c(C(=O)c3c[nH]c4ncc(C#N)cc34)c2F)cn1 [P-2085, 6-Methoxy-pyridine-3-sulfonic acid [3-(5-cyano-1H-pyrrolo[2,3-b]pyridine-3-carbonyl)-2,4-difluoro-phenyl]-amide]	≥ 5.00	≥ 5.00	≥ 5.00	–
CCn1cc(S(=O)(=O)Nc2cccc(C(=O)c3c[nH]c4ncc(C#N)cc34)c2F)cn1 [P-2089, 1-Ethyl-1H-pyrazole-4-sulfonic acid [3-(5-cyano-1H-pyrrolo[2,3-b]pyridine-3-carbonyl)-2-fluoro-phenyl]-amide]	–	≥ 5.00	≥ 5.00	≥ 5.00
Cn1cc(S(=O)(=O)Nc2cccc(C(=O)c3c[nH]c4ncc(C#N)cc34)c2F)cn1 [P-2090, 1-Methyl-1H-pyrazole-4-sulfonic acid [3-(5-cyano-1H-pyrrolo[2,3-b]pyridine-3-carbonyl)-2-fluoro-phenyl]-amide]	≥ 5.00	≥ 5.00	≥ 5.00	–
Cc1c(S(=O)(=O)Nc2cccc(C(=O)c3c[nH]c4ncc(C#N)cc34)c2F)cnn1C [P-2091, 1,5-Dimethyl-1H-pyrazole-4-sulfonic acid [3-(5-cyano-1H-pyrrolo[2,3-b]pyridine-3-carbonyl)-2-fluoro-phenyl]-amide]	–	≥ 5.00	–	–
COc1ccc(S(=O)(=O)Nc2cccc(C(=O)c3c[nH]c4ncc(C#N)cc34)c2F)cn1 [P-2092, 6-Methoxy-pyridine-3-sulfonic acid [3-(5-cyano-1H-pyrrolo[2,3-b]pyridine-3-carbonyl)-2-fluoro-phenyl]-amide]	–	≥ 5.00	≥ 5.00	–
N#Cc1cnc2[nH]cc(C(=O)c3c(F)ccc(NS(=O)(=O)Cc4ccccn4)c3F)c2c1 [P-2093, N-[3-(5-Cyano-1H-pyrrolo[2,3-b]pyridine-3-carbonyl)-2,4-difluoro-phenyl]-C-pyridin-2-yl-methanesulfonamide]	–	≥ 5.00	–	≥ 5.00
N#Cc1cnc2[nH]cc(C(=O)c3c(F)ccc(NS(=O)(=O)Cc4ccncc4)c3F)c2c1 [P-2095, N-[3-(5-Cyano-1H-pyrrolo[2,3-b]pyridine-3-carbonyl)-2,4-difluoro-phenyl]-C-pyridin-4-yl-methanesulfonamide]	–	≥ 5.00	–	≥ 5.00
N#Cc1cnc2[nH]cc(C(=O)c3cccc(NS(=O)(=O)Cc4cccnc4)c3F)c2c1 [P-2096, N-[3-(5-Cyano-1H-pyrrolo[2,3-b]pyridine-3-carbonyl)-2-fluoro-phenyl]-C-pyridin-3-yl-methanesulfonamide]	–	≥ 5.00	–	≥ 5.00
N#Cc1cnc2[nH]cc(C(=O)c3cccc(NS(=O)(=O)Cc4ccncc4)c3F)c2c1 [P-2097, N-[3-(5-Cyano-1H-pyrrolo[2,3-b]pyridine-3-carbonyl)-2-fluoro-phenyl]-C-pyridin-4-yl-methanesulfonamide]	–	≥ 5.00	–	≥ 5.00
N#Cc1cnc2[nH]cc(C(=O)c3cccc(NS(=O)(=O)Cc4ccccn4)c3F)c2c1 [P-2098, N-[3-(5-Cyano-1H-pyrrolo[2,3-b]pyridine-3-carbonyl)-2-fluoro-phenyl]-C-pyridin-2-yl-methanesulfonamide]	–	≥ 5.00	–	–
CCCS(=O)(=O)Nc1ccc(F)c(C(=O)c2c[nH]c3ncc(S(C)(=O)=O)cc23)c1F [P-2173, Propane-1-sulfonic acid [2,4-difluoro-3-(5-methanesulfonyl-1H-pyrrolo[2,3-b]pyridine-3-carbonyl)-phenyl]-amide]	≥ 5.00	≥ 5.00	–	–
CCCS(=O)(=O)Nc1ccc(F)c(C(=O)c2c[nH]c3ncc(-c4ccc(S(=O)(=O)N5CCCCC5)cc4)cc23)c1F [P-2186, Propane-1-sulfonic acid (2,4-difluoro-3-{5-[4-(piperidine-1-sulfonyl)-phenyl]-1H-pyrrolo[2,3-b]pyridine-3-carbonyl}-phenyl)-amide]	≥ 5.00	≥ 5.00	–	≥ 5.00
CCCS(=O)(=O)Nc1ccc(F)c(C(=O)c2c[nH]c3ncc(-c4cnc(SC)nc4)cc23)c1F [P-2189, Propane-1-sulfonic acid {2,4-difluoro-3-[5-(2-methylsulfanyl-pyrimidin-5-yl)-1H-pyrrolo[2,3-b]pyridine-3-carbonyl]-phenyl}-amide]	≥ 5.00	≥ 5.00	–	≥ 5.00
CCCS(=O)(=O)Nc1ccc(F)c(C(=O)c2c[nH]c3ncc(-c4cnc(N5CCOCC5)nc4)cc23)c1F [P-2197, Propane-1-sulfonic acid {2,4-difluoro-3-[5-(2-morpholin-4-yl-pyrimidin-5-yl)-1H-pyrrolo[2,3-b]pyridine-3-carbonyl]-phenyl}-amide]	≥ 5.00	≥ 5.00	–	≥ 5.00
CS(=O)(=O)Nc1ccc(F)c(C(=O)c2c[nH]c3ncc(C#N)cc23)c1F [P-2294, N-[3-(5-Cyano-1H-pyrrolo[2,3-b]pyridine-3-carbonyl)-2,4-difluoro-phenyl]-methanesulfonamide]	–	≥ 5.00	≥ 5.00	≥ 5.00
O=C(c1c(F)ccc(NS(=O)(=O)C2(C(=O)O)CC2)c1F)c1c[nH]c2ncc(Br)cc12 [P-2349, 1-[3-(5-Bromo-1H-pyrrolo[2,3-b]pyridine-3-carbonyl)-2,4-difluoro-phenylsulfamoyl]-cyclopropanecarboxylic acid]	–	–	–	≥ 5.00
CC(C)S(=O)(=O)Nc1cccc(C(=O)c2c[nH]c3ncc(C#N)cc23)c1F [P-2411, Propane-2-sulfonic acid [3-(5-cyano-1H-pyrrolo[2,3-b]pyridine-3-carbonyl)-2-fluoro-phenyl]-amide]	–	≥ 5.00	≥ 5.00	–
CC(C)CS(=O)(=O)Nc1cccc(C(=O)c2c[nH]c3ncc(C#N)cc23)c1F [P-2412, 2-Methyl-propane-1-sulfonic acid [3-(5-cyano-1H-pyrrolo[2,3-b]pyridine-3-carbonyl)-2-fluoro-phenyl]-amide]	≥ 5.00	≥ 5.00	≥ 5.00	–
N#Cc1cnc2[nH]cc(C(=O)c3cccc(NS(=O)(=O)N4CCOCC4)c3F)c2c1 [P-2421, Morpholine-4-sulfonic acid [3-(5-cyano-1H-pyrrolo[2,3-b]pyridine-3-carbonyl)-2-fluoro-phenyl]-amide]	–	≥ 5.00	≥ 5.00	–
COc1ncc(-c2cnc3[nH]cc(C(=O)c4cccc(NS(=O)(=O)N(C)C)c4F)c3c2)cn1 [P-2424, N,N-dimethylamino-sulfonic acid {2-fluoro-3-[5-(2-methoxy-pyrimidin-5-yl)-1H-pyrrolo[2,3-b]pyridine-3-carbonyl]-phenyl}-amide]	–	≥ 5.00	≥ 5.00	≥ 5.00
O=C(c1cccc(NS(=O)(=O)C2CCCC2)c1)c1c[nH]c2ncc(F)cc12 [P-2463, Cyclopentanesulfonic acid [3-(5-fluoro-1H-pyrrolo[2,3-b]pyridine-3-carbonyl)-phenyl]-amide]	–	–	–	≥ 5.00
CN(C)S(=O)(=O)Nc1cccc(C(=O)c2c[nH]c3ncc(Cl)cc23)c1 [P-2470, N,N-dimethylamino-sulfonic acid [3-(5-chloro-1H-pyrrolo[2,3-b]pyridine-3-carbonyl)-phenyl]-amide]	–	–	–	≥ 5.00
O=C(c1c(F)ccc(NS(=O)(=O)c2ccc(C(F)(F)F)cc2)c1F)c1c[nH]c2ncc(C3CC3)cc12 [P-2483, N-[3-(5-Cyclopropyl-1H-pyrrolo[2,3-b]pyridine-3-carbonyl)-2,4-difluoro-phenyl]-4-trifluoromethyl-benzenesulfonamide]	–	–	≥ 5.00	≥ 5.00
